According to patent publication US20260327264A1, “PEPTIDE INHIBITORS OF INTERLEUKIN-23 RECEPTOR” (Zealand Pharma A/S, priority 2023, published 2026):
Where two headings read alike, the source gives them in different places.

Tests used:
IL-23R = settings: see Examples of WO2023/099669; cited from earlier work
[1] = Peptide stability in simulated gastric fluid (SGF); type: in vitro ADME; settings: pig, pH 1.2, pepsin, 37° C.
How it was run: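 Peptide (10 μM final) incubated at 37 °C in USP SGF, pH 1.2 with porcine pepsin 3.2 g/L; aliquots at 0, 1 and 4 h quenched in acidified acetonitrile.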

[2] = test system: IL-23 mediated STAT3 signalling (DB cells); experiment: Functional inhibition of IL-23 mediated STAT3 signalling (phospho-STAT3 Tyr705) in DB cells; type: cell-based, human; settings: for hIL-23 (pSTAT3) antagonist % inhibition: Table 3-2, maximal inhibitory response, EC80 of hIL-23
How it was run: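 DB cells preincubated 15 min with inhibitor at 37° C, 5% CO2, then stimulated 90 min with hIL-23 at EC80. Lysate phospho-STAT3 measured by MSD electrochemiluminescence. Signal normalized to IL-23-alone and buffer wells; IC50 and maximal inhibition from concentration–response curves.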

[3] = Peptide stability in simulated intestinal fluid (SIF); type: in vitro ADME; settings: pig, simulated intestinal fluid; SIF, 1 h, pH 6.8, pancreatin, 37° C., 10 μM
How it was run: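 Peptide at 10 μM final in USP-type SIF (10 g/L porcine pancreatin, phosphate buffer pH 6.8), shaken at 37 °C. Samples at 0, 1 and 4 h quenched in acetonitrile/0.1% formic acid and analysed by LC-HRMS. Percent remaining calculated from absolute peak areas relative to time zero.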

human IL-23R = molecular target: T1, human IL-23R (Homo sapiens, UniProt Q5VWK5); experiment: Binding assay: displacement of fluorophore (TAMRA)-labelled reference compound from human IL-23R (BRET, Nluc-IL23R fusion protein membranes); settings: for Emax: read-out: % displacement (hIL-23R binding)
T1 construct: Nanoluc luciferase (Nluc); secretion signal encoded by the plasmid (not specified); expressed in transfected cells; crude membranes used in the assay
T1 sequence (Q5VWK5 22-629): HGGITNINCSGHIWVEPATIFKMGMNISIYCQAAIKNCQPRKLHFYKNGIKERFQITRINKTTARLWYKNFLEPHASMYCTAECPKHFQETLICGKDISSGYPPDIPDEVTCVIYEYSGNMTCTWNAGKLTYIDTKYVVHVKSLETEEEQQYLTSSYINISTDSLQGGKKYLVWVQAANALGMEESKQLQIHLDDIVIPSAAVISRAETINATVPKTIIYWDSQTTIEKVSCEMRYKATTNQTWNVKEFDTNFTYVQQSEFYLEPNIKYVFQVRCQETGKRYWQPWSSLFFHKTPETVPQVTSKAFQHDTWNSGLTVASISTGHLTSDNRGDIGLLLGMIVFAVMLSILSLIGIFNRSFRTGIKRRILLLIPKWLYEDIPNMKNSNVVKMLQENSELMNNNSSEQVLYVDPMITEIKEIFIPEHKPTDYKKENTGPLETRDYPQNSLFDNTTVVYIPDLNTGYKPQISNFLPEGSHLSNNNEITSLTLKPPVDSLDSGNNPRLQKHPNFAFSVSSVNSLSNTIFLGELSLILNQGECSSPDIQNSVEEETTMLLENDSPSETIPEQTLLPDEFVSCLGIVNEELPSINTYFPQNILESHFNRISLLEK

[4] = Table 3-2, EC80 of hIL-23, read-out: hIL-23 (pSTAT3) antagonist IC50

Row | Compound | inhibitory activity (in words), WO2023/099669 (IL-23R) | remaining at 1 h, 10 µM [1] [%] | remaining at 4 h, 10 µM ([1]; 4 h) [%] | IC50 ([2]; EC80 of hIL-23, read-out: IC50 (pSTAT3)) [nM] | IC50 [2, 4] [nM] | hIL-23 (pSTAT3) antagonist % inhibition [2] [%] | remaining at 1 h, 10 µM [3] [%] | IC50 (human IL-23R) [nM] | Emax (human IL-23R) [%]
1 | [Ac]-DK(1c)SC(2a)WQC(2a)WWLE(1c)R-[NH2] [Ref 7] | inactive | – | – | – | – | – | – | – | –
2 | H-DC(1a)SE(2c)WQK(2c)WWLC(1a)R-[NH2] [Ref 5] | inactive | – | – | – | – | – | – | – | –
3 | D(1c)*SC(2a)WQC(2a)WWLR(1c)* [Ref 6] | inactive | – | – | – | – | – | – | – | –
4 | CC(C)C[C@]1(C)NC(=O)[C@H](Cc2ccc3ccccc3c2)NC(=O)[C@H](Cc2ccc(OCCN)cc2)NC(=O)[C@@H]2CCNC(=O)CC[C@H](NC(=O)[C@H](CO)NC(=O)Cc3ccc(cc3)CNC(=O)CC[C@@H](C(=O)N[C@@H](CCN)C(=O)NCCCCc3cccnc3)NC1=O)C(=O)N[C@@H](Cc1c[nH]c3ccccc13)C(=O)N[C@@H](CCC(N)=O)C(=O)N2 [Compound 6, [4-Aminomethyl-phenylacetyl](1c)*SE(2c)WQ[Dab](2c)[Y(2-aminoethoxy)][2-Nal][2-Me-Leu]E(1c)[Dab]-[NH-(4-(pyridin-3-yl)butanyl)]] | – | 110 | 108 | 3.2 | 3.2 | 99 | 97 | 0.037 | 103
5 | CNC(=O)[C@H](Cc1cccnc1)NC(=O)[C@@H](CO)NC(=O)[C@@H]1CCC(=O)NCc2ccc(cc2)CC(=O)N[C@@H](CO)C(=O)N[C@H]2CCC(=O)NCC[C@H](NC(=O)[C@H](CCC(N)=O)NC(=O)[C@H](Cc3c[nH]c4ccccc34)NC2=O)C(=O)N[C@@H](Cc2ccc(OCCN)cc2)C(=O)N[C@@H](Cc2ccc3ccccc3c2)C(=O)N[C@@](C)(CC(C)C)C(=O)N1 [Compound 38, [4-Aminomethyl-phenylacetyl](1c)*SE(2c)WQ[Dab](2c)[Y(2-aminoethoxy)][2-Nal][2-Me-Leu]E(1c)[{d}S][3-(3-Pyridyl)-Ala]-[NHMe]] | – | 100 | – | – | 1 | 100 | 82 | – | 102
